In patent US6777425B2, “Isoquinoline compounds having antiinfective activity” (Genesoft Pharmaceuticals, Inc., priority 2001, dated 2004):

How the values were obtained:
B. cereus ATCC 11778 = assay: NCCLS broth microdilution MIC, B. cereus; assay type: cell-based, Bacillus cereus; settings: organism A = B. cereus ATCC 11778
Source text: (§1) Compounds according to this invention were screened for their in vitro activities against selected species of bacteria and fungi. […]

C. albicans ATCC 38247 = assay: Antifungal MIC, C. albicans; assay type: cell-based, Candida albicans; settings: organism B = C. albicans ATCC 38247
Source text: as §1

E. faecalis ATCC 29212 = assay: NCCLS broth microdilution MIC, E. faecalis; assay type: cell-based; settings: organism C = E. faecalis ATCC 29212
Source text: as §1

E. faecium ATCC 51559 = assay: NCCLS broth microdilution MIC, E. faecium (VRE); assay type: cell-based, Enterococcus faecium; settings: organism D = E. faecium ATCC 51559 (VRE)
Source text: as §1

S. aureus ATCC 13709 = assay: NCCLS broth microdilution MIC, S. aureus (MSSA); assay type: cell-based, Staphylococcus aureus; settings: organism E = S. aureus ATCC 13709 (MSSA)
Source text: as §1

S. aureus ATCC 27660 = assay: NCCLS broth microdilution MIC, S. aureus (MRSA); assay type: cell-based, Staphylococcus aureus; settings: organism F = S. aureus ATCC 27660 (MRSA)
Source text: as §1

[1] = test system: S. epidermidis ATCC 12228; assay: NCCLS broth microdilution MIC, S. epidermidis; assay type: cell-based, Staphylococcus epidermidis; settings: organism G = S. epidermidis ATCC 12228
Source text: as §1

S. pneumoniae ATCC 49619 = assay: NCCLS broth microdilution MIC, S. pneumoniae ATCC 49619; assay type: cell-based, Streptococcus pneumoniae; settings: organism H = S. pneumoniae ATCC 49619
Source text: as §1

S. pneumoniae ATCC 51422 = assay: NCCLS broth microdilution MIC, S. pneumoniae (PRSP); assay type: cell-based, Streptococcus pneumoniae; settings: organism I = S. pneumoniae ATCC 51422 (PRSP)
Source text: as §1

SMILES | Minimum Inhibitory Concentration (MIC) (B. cereus ATCC 11778) | Minimum Inhibitory Concentration (MIC) (C. albicans ATCC 38247) | Minimum Inhibitory Concentration (MIC) (E. faecalis ATCC 29212) | Minimum Inhibitory Concentration (MIC) (E. faecium ATCC 51559) | Minimum Inhibitory Concentration (MIC) (S. aureus ATCC 13709) | Minimum Inhibitory Concentration (MIC) (S. aureus ATCC 27660) | Minimum Inhibitory Concentration (MIC) [1] | Minimum Inhibitory Concentration (MIC) (S. pneumoniae ATCC 49619) | Minimum Inhibitory Concentration (MIC) (S. pneumoniae ATCC 51422)
Cn1cc(NC(=O)c2cc(NC(=O)c3cc(NC(=O)c4cc5ccccc5cn4)cn3C)c[nH]2)cc1C(=O)NCCN1CCCC1 [Ib-84] | +++ (+++ = MIC ≦ 4) | + (+ = 12 ≦ MIC ≦ 32) | +++ (+++ = MIC ≦ 4) | +++ (+++ = MIC ≦ 4) | +++ (+++ = MIC ≦ 4) | +++ (+++ = MIC ≦ 4) | +++ (+++ = MIC ≦ 4) | +++ (+++ = MIC ≦ 4) | +++ (+++ = MIC ≦ 4)
Cn1cc(NC(=O)c2ccc(NC(=O)c3cc(NC(=O)c4cc5ccccc5cn4)cn3C)cc2)cc1C(=O)NCCN1CCCCC1 [Ic-13] | +++ (+++ = MIC ≦ 4) | >32 µg/mL | +++ (+++ = MIC ≦ 4) | +++ (+++ = MIC ≦ 4) | +++ (+++ = MIC ≦ 4) | +++ (+++ = MIC ≦ 4) | +++ (+++ = MIC ≦ 4) | +++ (+++ = MIC ≦ 4) | +++ (+++ = MIC ≦ 4)
Cn1cc(NC(=O)c2cc(NC(=O)c3cc(NC(=O)c4cc5ccccc5cn4)cn3C)c[nH]2)cc1C(=O)NCCc1ccccn1 [Ib-93] | +++ (+++ = MIC ≦ 4) | >32 µg/mL | +++ (+++ = MIC ≦ 4) | +++ (+++ = MIC ≦ 4) | +++ (+++ = MIC ≦ 4) | +++ (+++ = MIC ≦ 4) | +++ (+++ = MIC ≦ 4) | +++ (+++ = MIC ≦ 4) | +++ (+++ = MIC ≦ 4)
Cn1cc(NC(=O)c2cc(NC(=O)c3cc(NC(=O)c4cc5ccccc5cn4)cn3C)c[nH]2)cc1C(=O)NCCN1CCCCC1 [Ib-86] | +++ (+++ = MIC ≦ 4) | ++ (++ = 4 < MIC < 12) | +++ (+++ = MIC ≦ 4) | +++ (+++ = MIC ≦ 4) | +++ (+++ = MIC ≦ 4) | +++ (+++ = MIC ≦ 4) | +++ (+++ = MIC ≦ 4) | +++ (+++ = MIC ≦ 4) | +++ (+++ = MIC ≦ 4)
CCN(CC)CCNC(=O)c1cc(NC(=O)c2ccc(NC(=O)c3cc(NC(=O)c4cc5ccccc5cn4)cn3C)cc2)cn1C [Ic-9] | +++ (+++ = MIC ≦ 4) | >32 µg/mL | +++ (+++ = MIC ≦ 4) |  | +++ (+++ = MIC ≦ 4) | +++ (+++ = MIC ≦ 4) |  | +++ (+++ = MIC ≦ 4) | 
Cn1cc(NC(=O)c2cc3ccccc3cn2)cc1C(=O)Nc1cc(C(=O)Nc2cn(C)c(C(=O)NCCN3CCOCC3)n2)n(C)c1 [Ib-58] | >32 µg/mL | >32 µg/mL | +++ (+++ = MIC ≦ 4) |  | ++ (++ = 4 < MIC < 12) | >32 µg/mL |  | +++ (+++ = MIC ≦ 4) | 
CN(C)CCCn1cc(NC(=O)c2cc(NC(=O)c3cc4ccccc4cn3)cn2C)cc1C(=O)Nc1cc(C(=O)NCCN2CCOCC2)n(C)c1 [Ib-81] | +++ (+++ = MIC ≦ 4) | + (+ = 12 ≦ MIC ≦ 32) | +++ (+++ = MIC ≦ 4) |  | +++ (+++ = MIC ≦ 4) | +++ (+++ = MIC ≦ 4) |  | +++ (+++ = MIC ≦ 4) | 
Cn1cc(NC(=O)c2cc(NC(=O)c3cc4ccccc4cn3)no2)cc1C(=O)OCCN1CCOCC1 [Ib-61] | >32 µg/mL | >32 µg/mL | +++ (+++ = MIC ≦ 4) |  | + (+ = 12 ≦ MIC ≦ 32) | +++ (+++ = MIC ≦ 4) |  | +++ (+++ = MIC ≦ 4) | 
CN(C)CCCNC(=O)c1cc(NC(=O)c2ccc(NC(=O)c3cc(NC(=O)c4cc5ccccc5cn4)cn3C)cc2)cn1C [Ic-15] | >32 µg/mL | >32 µg/mL | >32 µg/mL |  | +++ (+++ = MIC ≦ 4) | +++ (+++ = MIC ≦ 4) |  | +++ (+++ = MIC ≦ 4) | 
Cc1cc(NC(=O)c2cc(NC(=O)c3nc(NC(=O)c4cc5ccccc5cn4)cn3C)cn2CCN2CCOCC2)sn1 [Ib-77] | +++ (+++ = MIC ≦ 4) | >32 µg/mL | +++ (+++ = MIC ≦ 4) |  | +++ (+++ = MIC ≦ 4) | +++ (+++ = MIC ≦ 4) |  | +++ (+++ = MIC ≦ 4) | 
Cn1cc(NC(=O)c2cc(NC(=O)c3cc(NC(=O)c4cc5ccccc5cn4)cn3C)c[nH]2)cc1C(=O)NCCCNC1CCCCC1 [Ib-92] | +++ (+++ = MIC ≦ 4) | >32 µg/mL | +++ (+++ = MIC ≦ 4) |  | +++ (+++ = MIC ≦ 4) | +++ (+++ = MIC ≦ 4) |  | +++ (+++ = MIC ≦ 4) | 
Cn1cc(NC(=O)c2cc(NC(=O)c3cc(NC(=O)c4cc5ccccc5cn4)c[nH]3)cn2C)cc1C(=O)NCCN1CCCCC1 [Ib-62] | +++ (+++ = MIC ≦ 4) | >32 µg/mL | +++ (+++ = MIC ≦ 4) |  | ++ (++ = 4 < MIC < 12) | +++ (+++ = MIC ≦ 4) |  | +++ (+++ = MIC ≦ 4) | 
C[C@@H]1CCC[C@H](C)N1CCNC(=O)c1cc(NC(=O)c2ccc(NC(=O)c3cc(NC(=O)c4cc5ccccc5cn4)cn3C)cc2)cn1C [Ic-6] | +++ (+++ = MIC ≦ 4) | >32 µg/mL | +++ (+++ = MIC ≦ 4) |  | +++ (+++ = MIC ≦ 4) | +++ (+++ = MIC ≦ 4) |  | +++ (+++ = MIC ≦ 4) | +++ (+++ = MIC ≦ 4)
CN(C)CCCn1cc(NC(=O)c2cc(NC(=O)c3cc4ccccc4cn3)c[nH]2)cc1C(=O)Nc1cc(C(=O)NCCN2CCOCC2)n(C)c1 [Ib-82] | +++ (+++ = MIC ≦ 4) | + (+ = 12 ≦ MIC ≦ 32) | +++ (+++ = MIC ≦ 4) |  | +++ (+++ = MIC ≦ 4) | +++ (+++ = MIC ≦ 4) |  | +++ (+++ = MIC ≦ 4) | 
Cn1cc(NC(=O)c2cc(NC(=O)c3cc4ccccc4cn3)cn2CCCN2CCCCC2)cc1C(=O)Nc1ccc2cnccc2c1 [Ib-90] | +++ (+++ = MIC ≦ 4) | + (+ = 12 ≦ MIC ≦ 32) | +++ (+++ = MIC ≦ 4) |  | +++ (+++ = MIC ≦ 4) | +++ (+++ = MIC ≦ 4) |  | +++ (+++ = MIC ≦ 4) | 
CCN(CC)CCNC(=O)c1cc(NC(=O)c2cc(NC(=O)c3cc(NC(=O)c4cc5ccccc5cn4)cn3C)c[nH]2)cn1C [Ib-89] | +++ (+++ = MIC ≦ 4) | + (+ = 12 ≦ MIC ≦ 32) | +++ (+++ = MIC ≦ 4) |  | +++ (+++ = MIC ≦ 4) | +++ (+++ = MIC ≦ 4) |  | +++ (+++ = MIC ≦ 4) | 
CN(C)CCSCCn1cc(NC(=O)c2cc3ccccc3cn2)cc1C(=O)Nc1cc(C(=O)Nc2cc(C(=O)NCCN3CCSCC3)n(C)c2)n(C)c1 [Ib-80] | +++ (+++ = MIC ≦ 4) | +++ (+++ = MIC ≦ 4) | +++ (+++ = MIC ≦ 4) |  | +++ (+++ = MIC ≦ 4) | +++ (+++ = MIC ≦ 4) |  | +++ (+++ = MIC ≦ 4) | 
CCN(CC)CCNC(=O)c1cc(NC(=O)c2cc(NC(=O)c3cc(NC(=O)c4cc5ccccc5cn4)cn3C)cn2C)sn1 [Ib-53] | +++ (+++ = MIC ≦ 4) | >32 µg/mL | +++ (+++ = MIC ≦ 4) |  | +++ (+++ = MIC ≦ 4) | +++ (+++ = MIC ≦ 4) |  | +++ (+++ = MIC ≦ 4) | 
